Where “and” joins values, the source holds several entries; their conditions need not be identical. Identical values can stand only once.
Tested on: 931267-113-T-J1-PDC multicell spheroid viability
Test: Anticancer human tumor 931267-113-T-J1-PDC patient-derived colon adenocarcinoma cell line growth inhibition [PI3K]
Conditions: for viability, T/C: stronger effect = lower value
Method in brief: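 Stroma-containing spheroids: tumor line, pooled-donor HUVEC, hMSC. Treatments: targeted agents with PI3K inhibitors. Dosing: clinically relevant, half-log spacing, 10 microM ceiling without known Cmax. Read-out: cell viability.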

[1] = curve of first compound, second compound 0.00316 µM
[2] = curve of first compound, second compound 0.01 µM
[3] = curve of first compound, second compound 0.0316 µM
[4] = curve of first compound, second compound 0.1 µM
[5] = curve of first compound, second compound 0.316 µM
[6] = curve of first compound, second compound 1 µM
[7] = second compound 0.00316 µM, first compound 0.0316 µM
[8] = second compound 0.00316 µM, first compound 0.1 µM
[9] = second compound 0.00316 µM, first compound 0.316 µM
[10] = second compound 0.00316 µM, first compound 1 µM
[11] = second compound 0.00316 µM, first compound 3.16 µM
[12] = second compound 0.00316 µM, first compound 10 µM
[13] = second compound 0.01 µM, first compound 0.0316 µM
[14] = second compound 0.01 µM, first compound 0.1 µM
[15] = second compound 0.01 µM, first compound 0.316 µM
[16] = second compound 0.01 µM, first compound 1 µM
[17] = second compound 0.01 µM, first compound 3.16 µM
[18] = second compound 0.01 µM, first compound 10 µM
[19] = second compound 0.0316 µM, first compound 0.0316 µM
[20] = second compound 0.0316 µM, first compound 0.1 µM
[21] = second compound 0.0316 µM, first compound 0.316 µM
[22] = second compound 0.0316 µM, first compound 1 µM
[23] = second compound 0.0316 µM, first compound 3.16 µM
[24] = second compound 0.0316 µM, first compound 10 µM
[25] = second compound 0.1 µM, first compound 0.0316 µM
[26] = second compound 0.1 µM, first compound 0.1 µM
[27] = second compound 0.1 µM, first compound 0.316 µM
[28] = second compound 0.1 µM, first compound 1 µM
[29] = second compound 0.1 µM, first compound 3.16 µM
[30] = second compound 0.1 µM, first compound 10 µM
[31] = second compound 0.316 µM, first compound 0.0316 µM
[32] = second compound 0.316 µM, first compound 0.1 µM
[33] = second compound 0.316 µM, first compound 0.316 µM
[34] = second compound 0.316 µM, first compound 1 µM
[35] = second compound 0.316 µM, first compound 3.16 µM
[36] = second compound 0.316 µM, first compound 10 µM
[37] = second compound 1 µM, first compound 0.0316 µM
[38] = second compound 1 µM, first compound 0.1 µM
[39] = second compound 1 µM, first compound 0.316 µM
[40] = second compound 1 µM, first compound 1 µM
[41] = second compound 1 µM, first compound 3.16 µM
[42] = second compound 1 µM, first compound 10 µM
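Also: viability read 7 days after compound addition.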

SMILES: CC(Cn1ccc(-c2ccc(C#N)c(Cl)c2)n1)NC(=O)c1cc(C(C)O)[nH]n1 (stereo not given) + CC(Nc1ccc2c(c1)OCCn1cc(N3C(=O)OCC3C(F)F)nc1-2)C(N)=O
- IC50 [1]: > 10 µM
- IC50 [2]: > 10 µM
- IC50 [3]: > 10 µM
- IC50 [4]: > 10 µM
- IC50 [5]: > 10 µM
- IC50 [6]: > 10 µM
- viability, T/C [7]: 88.4%
- viability, T/C [8]: 101%
- viability, T/C [9]: 98.5%
- viability, T/C [10]: 110%
- viability, T/C [11]: 111%
- viability, T/C [12]: 101%
- viability, T/C [13]: 102%
- viability, T/C [14]: 103%
- viability, T/C [15]: 106%
- viability, T/C [16]: 115%
- viability, T/C [17]: 113%
- viability, T/C [18]: 110%
- viability, T/C [19]: 107%
- viability, T/C [20]: 106%
- viability, T/C [21]: 101%
- viability, T/C [22]: 89.8%
- viability, T/C [23]: 112%
- viability, T/C [24]: 91.5%
- viability, T/C [25]: 98.5%
- viability, T/C [26]: 98.8%
- viability, T/C [27]: 101%
- viability, T/C [28]: 94.8%
- viability, T/C [29]: 103%
- viability, T/C [30]: 79.8%
- viability, T/C [31]: 92.4%
- viability, T/C [32]: 90.5%
- viability, T/C [33]: 86.8%
- viability, T/C [34]: 80.2%
- viability, T/C [35]: 90.4%
- viability, T/C [36]: 72.8%
- viability, T/C [37]: 76.4%
- viability, T/C [38]: 76.8%
- viability, T/C [39]: 74.2%
- viability, T/C [40]: 74.8%
- viability, T/C [41]: 76.1%
- viability, T/C [42]: 59.2%

SMILES: Cn1ncnc1[C@H]1c2n[nH]c(=O)c3cc(F)cc(c23)N[C@@H]1c1ccc(F)cc1
- viability, T/C (compound 0.000316 µM): 104% [middle of 4 runs]
- viability, T/C (compound 0.001 µM): 107% [middle of 4 runs]
- viability, T/C (compound 0.00316 µM): 101% [middle of 4 runs]
- viability, T/C (compound 0.01 µM): 111% and 106% and 97% (2×)
- viability, T/C (compound 0.0316 µM): 112% [middle of 4 runs]
- viability, T/C (compound 0.1 µM): 95.6% [middle of 4 runs]
- IC50 (curve of compound): > 0.1 µM

SMILES: CC(=O)c1c(C)c2cnc(Nc3ccc(N4CCNCC4)cn3)nc2n(C2CCCC2)c1=O + CC(Nc1ccc2c(c1)OCCn1cc(N3C(=O)OCC3C(F)F)nc1-2)C(N)=O
- IC50 [1]: > 0.1 µM
- IC50 [2]: > 0.1 µM
- IC50 [3]: > 0.1 µM
- IC50 [4]: > 0.1 µM
- IC50 [5]: > 0.1 µM
- IC50 [6]: > 0.1 µM
- viability, T/C (second compound 0.00316 µM, first compound 0.000316 µM): 104%
- viability, T/C (second compound 0.00316 µM, first compound 0.001 µM): 110%
- viability, T/C (second compound 0.00316 µM, first compound 0.00316 µM): 95.1%
- viability, T/C (second compound 0.00316 µM, first compound 0.01 µM): 111%
- viability, T/C [7]: 105%
- viability, T/C [8]: 99.8%
- viability, T/C (second compound 0.01 µM, first compound 0.000316 µM): 111%
- viability, T/C (second compound 0.01 µM, first compound 0.001 µM): 101%
- viability, T/C (second compound 0.01 µM, first compound 0.00316 µM): 98.7%
- viability, T/C (second compound 0.01 µM, first compound 0.01 µM): 93.3%
- viability, T/C [13]: 108%
- viability, T/C [14]: 105%
- viability, T/C (second compound 0.0316 µM, first compound 0.000316 µM): 108%
- viability, T/C (second compound 0.0316 µM, first compound 0.001 µM): 93.5%
- viability, T/C (second compound 0.0316 µM, first compound 0.00316 µM): 91.9%
- viability, T/C (second compound 0.0316 µM, first compound 0.01 µM): 106%
- viability, T/C [19]: 110%
- viability, T/C [20]: 95.4%
- viability, T/C (second compound 0.1 µM, first compound 0.000316 µM): 100%
- viability, T/C (second compound 0.1 µM, first compound 0.001 µM): 97.7%
- viability, T/C (second compound 0.1 µM, first compound 0.00316 µM): 92.7%
- viability, T/C (second compound 0.1 µM, first compound 0.01 µM): 87.1%
- viability, T/C [25]: 105%
- viability, T/C [26]: 87.8%
- viability, T/C (second compound 0.316 µM, first compound 0.000316 µM): 92.1%
- viability, T/C (second compound 0.316 µM, first compound 0.001 µM): 88.1%
- viability, T/C (second compound 0.316 µM, first compound 0.00316 µM): 81%
- viability, T/C (second compound 0.316 µM, first compound 0.01 µM): 85.7%
- viability, T/C [31]: 91.6%
- viability, T/C [32]: 82.2%
- viability, T/C (second compound 1 µM, first compound 0.000316 µM): 75.9%
- viability, T/C (second compound 1 µM, first compound 0.001 µM): 74%
- viability, T/C (second compound 1 µM, first compound 0.00316 µM): 77.8%
- viability, T/C (second compound 1 µM, first compound 0.01 µM): 70.5%
- viability, T/C [37]: 80.1%
- viability, T/C [38]: 66.3%

SMILES: CC1(C)CCC(CN2CCN(c3ccc(C(=O)NS(=O)(=O)c4ccc(NCC5CCOCC5)c([N+](=O)[O-])c4)c(Oc4cnc5[nH]ccc5c4)c3)CC2)=C(c2ccc(Cl)cc2)C1 + CC(Nc1ccc2c(c1)OCCn1cc(N3C(=O)OCC3C(F)F)nc1-2)C(N)=O
- IC50 [1]: 6.16 µM
- IC50 [2]: 6.33 µM
- IC50 [3]: 5.56 µM
- IC50 [4]: 5.22 µM
- IC50 [5]: 4.86 µM
- IC50 [6]: 4.21 µM
- viability, T/C [7]: 91.7%
- viability, T/C [8]: 102%
- viability, T/C [9]: 105%
- viability, T/C [10]: 106%
- viability, T/C [11]: 94.3%
- viability, T/C [12]: 17.5%
- viability, T/C [13]: 104%
- viability, T/C [14]: 98.5%
- viability, T/C [15]: 97.5%
- viability, T/C [16]: 107%
- viability, T/C [17]: 96.2%
- viability, T/C [18]: 19.3%
- viability, T/C [19]: 112%
- viability, T/C [20]: 104%
- viability, T/C [21]: 95.8%
- viability, T/C [22]: 91.4%
- viability, T/C [23]: 87.4%
- viability, T/C [24]: 14.5%
- viability, T/C [25]: 94.2%
- viability, T/C [26]: 88.2%
- viability, T/C [27]: 91.5%
- viability, T/C [28]: 97.9%
- viability, T/C [29]: 78.2%
- viability, T/C [30]: 13.7%
- viability, T/C [31]: 81.7%
- viability, T/C [32]: 89%
- viability, T/C [33]: 80.2%
- viability, T/C [34]: 75.4%
- viability, T/C [35]: 73%
- viability, T/C [36]: 13.6%
- viability, T/C [37]: 78.5%
- viability, T/C [38]: 77.1%
- viability, T/C [39]: 73.9%
- viability, T/C [40]: 69.7%
- viability, T/C [41]: 63.3%
- viability, T/C [42]: 14.1%

SMILES: CC(C)NCC(C(=O)N1CCN(c2ncnc3c2C(C)CC3O)CC1)c1ccc(Cl)cc1 (stereo not given) + COc1c(OCCCN2CCOCC2)ccc2c3n(c(=NC(=O)c4cnc(N)nc4)nc12)CCN3
- IC50 [1]: > 10 µM
- IC50 [2]: > 10 µM
- IC50 [3]: > 10 µM
- IC50 [4]: > 10 µM
- IC50 [5]: < 0.0316 µM
- IC50 [6]: < 0.0316 µM
- viability, T/C [7]: 94.2%
- viability, T/C [8]: 96.2%
- viability, T/C [9]: 94.3%
- viability, T/C [10]: 94.7%
- viability, T/C [11]: 95%
- viability, T/C [12]: 71.1%
- viability, T/C [13]: 96.3%
- viability, T/C [14]: 93.7%
- viability, T/C [15]: 93.2%
- viability, T/C [16]: 91.2%
- viability, T/C [17]: 97.8%
- viability, T/C [18]: 71.4%
- viability, T/C [19]: 84.9%
- viability, T/C [20]: 84.9%
- viability, T/C [21]: 81.8%
- viability, T/C [22]: 81.6%
- viability, T/C [23]: 83.3%
- viability, T/C [24]: 65.8%
- viability, T/C [25]: 67.8%
- viability, T/C [26]: 71.1%
- viability, T/C [27]: 71.6%
- viability, T/C [28]: 69.7%
- viability, T/C [29]: 67.5%
- viability, T/C [30]: 55.7%
- viability, T/C [31]: 43.6%
- viability, T/C [32]: 44.8%
- viability, T/C [33]: 44%
- viability, T/C [34]: 47.7%
- viability, T/C [35]: 49.2%
- viability, T/C [36]: 44.1%
- viability, T/C [37]: 32.9%
- viability, T/C [38]: 30.8%
- viability, T/C [39]: 35.8%
- viability, T/C [40]: 31%
- viability, T/C [41]: 42%
- viability, T/C [42]: 33.3%

From PubChem BioAssay AID1963970 (Molecular Pharmacology Branch, DTP, NCI, 2024)
